Experimental data published in PubChem BioAssay (NCI).
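Five compound concentrations were applied to cells in 96-well plates for 48 hours; endpoints were derived by simple linear interpolation of the resulting dose-response curve. TGI: concentration producing complete growth inhibition.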

What was measured:
Experiment in all cases: NCI tumour cell line growth inhibition, 48 h
NCI-H460 lung = test system: NCI-H460 lung
SF-539 CNS = test system: SF-539 CNS
OVCAR-4 ovarian = test system: OVCAR-4 ovarian
HT29 colon = test system: HT29 colon
NCI-H522 lung = test system: NCI-H522 lung
RXF 393 renal = test system: RXF 393 renal
HCT-116 colon = test system: HCT-116 colon
HCC-2998 colon = test system: HCC-2998 colon
SK-MEL-5 melanoma = test system: SK-MEL-5 melanoma
A498 renal = test system: A498 renal
XF 498 CNS = test system: XF 498 CNS
P388 leukemia = test system: P388 leukemia
NCI-H226 lung = test system: NCI-H226 lung
CCRF-CEM leukemia = test system: CCRF-CEM leukemia
DLD-1 colon = test system: DLD-1 colon
P388/ADR leukemia = test system: P388/ADR leukemia
UACC-257 melanoma = test system: UACC-257 melanoma
SK-MEL-2 melanoma = test system: SK-MEL-2 melanoma
HCT-15 colon = test system: HCT-15 colon
HL-60(TB) leukemia = test system: HL-60(TB) leukemia
SF-295 CNS = test system: SF-295 CNS
NCI/ADR-RES ovarian = test system: NCI/ADR-RES ovarian
EKVX NSCLC = test system: EKVX NSCLC
OVCAR-5 ovarian = test system: OVCAR-5 ovarian
SNB-19 CNS = test system: SNB-19 CNS
K-562 leukemia = test system: K-562 leukemia
HOP-18 NSCLC = test system: HOP-18 NSCLC
HOP-62 NSCLC = test system: HOP-62 NSCLC
M19-MEL melanoma = test system: M19-MEL melanoma
SNB-75 CNS = test system: SNB-75 CNS
LOX IMVI melanoma = test system: LOX IMVI melanoma
COLO 205 colon = test system: COLO 205 colon
SW-620 colon = test system: SW-620 colon
IGROV1 ovarian = test system: IGROV1 ovarian
OVCAR-3 ovarian = test system: OVCAR-3 ovarian
KM20L2 colon = test system: KM20L2 colon
U251 CNS = test system: U251 CNS
MALME-3M melanoma = test system: MALME-3M melanoma
A549 NSCLC = test system: A549 NSCLC
SK-MEL-28 melanoma = test system: SK-MEL-28 melanoma
SF-268 CNS = test system: SF-268 CNS
UO-31 renal = test system: UO-31 renal
UACC-62 melanoma = test system: UACC-62 melanoma
MOLT-4 leukemia = test system: MOLT-4 leukemia
SN12C renal = test system: SN12C renal
MCF7 breast = test system: MCF7 breast
DMS 114 small cell lung = test system: DMS 114 small cell lung
NCI-H23 lung = test system: NCI-H23 lung
KM12 colon = test system: KM12 colon
OVCAR-8 ovarian = test system: OVCAR-8 ovarian
SK-OV-3 ovarian = test system: SK-OV-3 ovarian
SN12K1 renal = test system: SN12K1 renal
RPMI-8226 leukemia = test system: RPMI-8226 leukemia
DMS 273 small cell lung = test system: DMS 273 small cell lung
HOP-92 NSCLC = test system: HOP-92 NSCLC
SNB-78 CNS = test system: SNB-78 CNS

Compound: CSc1nc(SC)c2cnn(CC3CO3)c2n1 (stereo not given)
- TGI (NCI-H460 lung): 40.8 µM
- TGI (SF-539 CNS): 38.5 µM
- TGI (OVCAR-4 ovarian): 44.2 µM
- TGI (HT29 colon): 47.1 µM
- TGI (NCI-H522 lung): 77.3 µM
- TGI (RXF 393 renal): 34 µM
- TGI (HCT-116 colon): 31.9 µM
- TGI (HCC-2998 colon): 31.3 µM
- TGI (SK-MEL-5 melanoma): 17.8 µM
- TGI (A498 renal): > 100 µM
- TGI (XF 498 CNS): 45.4 µM
- TGI (P388 leukemia): > 54.5 µM
- TGI (NCI-H226 lung): 38.7 µM
- TGI (CCRF-CEM leukemia): 70.5 µM
- TGI (DLD-1 colon): 53.9 µM
- TGI (P388/ADR leukemia): > 57 µM
- TGI (UACC-257 melanoma): 37.4 µM
- TGI (SK-MEL-2 melanoma): 31.7 µM
- TGI (HCT-15 colon): > 61.4 µM
- TGI (HL-60(TB) leukemia): 45.4 µM
- TGI (SF-295 CNS): 55.4 µM
- TGI (NCI/ADR-RES ovarian): 36.3 µM
- TGI (EKVX NSCLC): > 75.4 µM
- TGI (OVCAR-5 ovarian): 41.3 µM
- TGI (SNB-19 CNS): > 100 µM
- TGI (K-562 leukemia): > 100 µM
- TGI (HOP-18 NSCLC): > 100 µM
- TGI (HOP-62 NSCLC): 41.2 µM
- TGI (M19-MEL melanoma): 27.1 µM
- TGI (SNB-75 CNS): 44.7 µM
- TGI (LOX IMVI melanoma): 19.8 µM
- TGI (COLO 205 colon): 35.5 µM
- TGI (SW-620 colon): > 44.7 µM
- TGI (IGROV1 ovarian): 38.1 µM
- TGI (OVCAR-3 ovarian): > 65.1 µM
- TGI (KM20L2 colon): 43.4 µM
- TGI (U251 CNS): 45.4 µM
- TGI (MALME-3M melanoma): 45.2 µM
- TGI (A549 NSCLC): 64.8 µM
- TGI (SK-MEL-28 melanoma): 18.6 µM
- TGI (SF-268 CNS): 33.9 µM
- TGI (UO-31 renal): 45 µM
- TGI (UACC-62 melanoma): 33.5 µM
- TGI (MOLT-4 leukemia): 7.73 µM
- TGI (SN12C renal): > 50.1 µM
- TGI (MCF7 breast): 25.7 µM
- TGI (DMS 114 small cell lung): 32.6 µM
- TGI (NCI-H23 lung): 34.6 µM
- TGI (KM12 colon): 39.2 µM
- TGI (OVCAR-8 ovarian): 15.8 µM
- TGI (SK-OV-3 ovarian): > 100 µM
- TGI (SN12K1 renal): 21.6 µM
- TGI (RPMI-8226 leukemia): > 100 µM
- TGI (DMS 273 small cell lung): > 54.6 µM

Compound: COC(=O)C(C/C=C(\C)c1ccccc1)C(C)=O (stereo not given)
- TGI (NCI-H460 lung): > 100 µM
- TGI (SF-539 CNS): > 100 µM
- TGI (OVCAR-4 ovarian): > 100 µM
- TGI (HT29 colon): > 100 µM
- TGI (NCI-H522 lung): > 100 µM
- TGI (RXF 393 renal): > 100 µM
- TGI (HCT-116 colon): > 100 µM
- TGI (HCC-2998 colon): > 100 µM
- TGI (SK-MEL-5 melanoma): > 100 µM
- TGI (A498 renal): > 100 µM
- TGI (XF 498 CNS): > 100 µM
- TGI (P388 leukemia): > 82.1 µM
- TGI (NCI-H226 lung): > 100 µM
- TGI (CCRF-CEM leukemia): > 100 µM
- TGI (DLD-1 colon): > 100 µM
- TGI (P388/ADR leukemia): > 100 µM
- TGI (UACC-257 melanoma): > 87.4 µM
- TGI (SK-MEL-2 melanoma): > 100 µM
- TGI (HCT-15 colon): > 100 µM
- TGI (HL-60(TB) leukemia): 53.6 µM
- TGI (SF-295 CNS): > 100 µM
- TGI (NCI/ADR-RES ovarian): > 100 µM
- TGI (EKVX NSCLC): > 100 µM
- TGI (OVCAR-5 ovarian): > 100 µM
- TGI (SNB-19 CNS): > 100 µM
- TGI (K-562 leukemia): > 100 µM
- TGI (HOP-18 NSCLC): > 100 µM
- TGI (HOP-62 NSCLC): > 100 µM
- TGI (M19-MEL melanoma): > 100 µM
- TGI (SNB-75 CNS): > 100 µM
- TGI (LOX IMVI melanoma): > 100 µM
- TGI (COLO 205 colon): > 100 µM
- TGI (SW-620 colon): > 100 µM
- TGI (IGROV1 ovarian): > 100 µM
- TGI (OVCAR-3 ovarian): > 100 µM
- TGI (KM20L2 colon): > 100 µM
- TGI (U251 CNS): > 100 µM
- TGI (MALME-3M melanoma): > 100 µM
- TGI (A549 NSCLC): > 100 µM
- TGI (SK-MEL-28 melanoma): > 100 µM
- TGI (SF-268 CNS): > 100 µM
- TGI (UO-31 renal): > 100 µM
- TGI (HOP-92 NSCLC): 98.3 µM
- TGI (UACC-62 melanoma): > 100 µM
- TGI (MOLT-4 leukemia): 51.6 µM
- TGI (SN12C renal): > 100 µM
- TGI (MCF7 breast): > 100 µM
- TGI (DMS 114 small cell lung): > 95.9 µM
- TGI (NCI-H23 lung): > 100 µM
- TGI (KM12 colon): > 100 µM
- TGI (SNB-78 CNS): > 100 µM
- TGI (OVCAR-8 ovarian): > 100 µM
- TGI (SK-OV-3 ovarian): > 100 µM
- TGI (SN12K1 renal): > 82.8 µM
- TGI (RPMI-8226 leukemia): > 100 µM
- TGI (DMS 273 small cell lung): > 100 µM
